The source of these data is patent US8173696B2, “Inhibitors of cysteine proteases and methods of use thereof” (Baylor University, priority 2007, dated 2012).

Where two headings read alike, the source gives them in different places.

One test deals with T1, Human liver cathepsin L (Homo sapiens, UniProt P07711).
T1 construct: from tissue; host or cells: human liver
The experiment in a line: Cathepsin L inhibition in vitro (Z-FR-AMC fluorescence). In kind it is biochemical. The protocol:
Human liver cathepsin L (1 nM) was incubated in 50 mM sodium acetate buffer, pH 5.5 containing 1 mM EDTA, 2 mM DTT, 0.001% (v/v) brij 35 with potential inhibitors at 20 different concentrations (from 0.05 nM to 50 μM) at 25° C. for 5 minutes before 100 μL substrate (benzyloxycarbonyl-L-phenylalanyl-L-arginyl-7-amido-4-methylcoumarin, abbreviated as Z-FR-AMC, 50 μM in final assay condition) was added to the enzyme-inhibitor mixture; total volume was 200 μL. Controls were performed using enzyme alone, substrate alone, and enzyme with DMSO. […] Spectra were taken at 3-sec intervals for 3 minutes. IC50 values were determined by non-linear regression analysis using vo(inh)=VMAX/{1+10(logIC50−x)*Hillslope} and Prism software (GraphPad).

The next test has as its target Cat B (Homo sapiens, UniProt P07858). The experiment in a line: Cathepsin B inhibition in vitro. In kind it is biochemical. As for the experimental part: For in vitro cysteine protease inhibition determinations, a compound's effectiveness can be given by an IC50 value. In these assays, the enzyme to be inhibited (e.g., a cruzain or cruzipain, a rhodesain, a brucipain, a congopain, a falcipain, CPB2.8 Delta CTE, a cathepsin-L, cathepsin-B, a cathepsin-H, a cathepsin-K, a cathepsin-S) is first incubated with varying concentrations (about 20-50,000 nM) of a test compound. To this is added a short peptide substrate of the enzyme of 1 to 10 amino acids, usually a di- or tri-peptide substrate, which is labeled with either a fluorogenic or chromogenic moiety. An exemplary chromogenic moiety is p-nitro-anilide (pNA). […] Exemplary peptide substrates include Phe-Arg, Arg-Arg, Phe-Arg-X (X=Ala, Arg), and Phe-X-Ser-Arg-Gln (X=Arg, 4-aminomethyl-phenylalanine (Arm), 4-aminomethyl-N-isopropyl-phenylalanin-e (laf), 4-piperidinyl-alanine (Ppa) or 4-aminocyclohexyl-alanine (Aca)). Cleavage of the labeled substrate induces a chromogenic or fluorescent signal that is measured using spectrophotometer or a spectrofluorometer, respectively. Signals induced in the presence of varying concentrations of test compound are measured in comparison to a positive control of enzyme and substrate and a negative control of enzyme in diluent (e.g., DMSO). Spontaneous cleavage of substrate is measured in controls with substrate alone. IC50 values are determined graphically using compound inhibitor concentrations in the linear portion of a plot of inhibition versus log [I].

In another test the target is Cruzain (Trypanosoma cruzi, UniProt P25779). Briefly: biochemical. The note with it: Table A; 0.1 nM cruzain, pH 5.50, 25° C., 10 μM Z-Phe-Arg-AMC. The class given is biochemical. The protocol: Cruzain (0.1 nM) in 100 mM sodium acetate buffer (pH 5.50) containing 5 mM DTT was preincubated for 5 min at 25° C. with inhibitor.
For test [1], the system named is cathepsin L. Briefly: Inhibition of activated cathepsin L secreted in DU-145 cell conditioned media. In kind it is cell-based. The note with it: compound 20 μM, replicate samples a-c. As for the experimental part: (§1) A prostrate carcinoma derived cell line (DU-145) was maintained in free phenol red DMEM supplemented with 10% fetal bovine serum, 1% glutamine, 1% glutamax, 1% Penicillin-Streptomycin and 1 mM sodium pyruvate, at 37° C. in an atmosphere of 95% air/5% CO2. DU145 was plated at 4×10^6 cells/10 cm Petri dish for dense, super confluent density. These cultures were incubated for 3 days before collection. Twenty-four hours prior to harvesting, cells were fed with serum-free media or serum-free media containing inhibitors at a final concentration of 20 μM. On the day of harvesting, the serum-free medium was collected for assay of Cathepsin L activity secreted in the medium. The cells were rinsed in cold PBS (pH 7.2) and collected in cold PBS containing […]. The cells were lysed using a Sonicator (Misonix 3000) at medium setting with pauses at 0° C. for temperature equilibration. Then the homogenate was centrifuged at 13,000×g for 20 min and the supernatant saved. […] Fluorescence was measured in a Fluoro Max 2 (Jobin Yvon) spectrofluorometer at an excitation wavelength of 355 nm and an emission wavelength of 460 nm. The substrate is hydrolyzed by cathepsin L and to a smaller extent by cathepsin B, therefore the activity is referred to as cathepsin L+B activity. Data analysis was performed using Prism software (GraphPad version 4). Data corresponding to cathepsin L activity (after activation) in cell conditioned media in the presence of Compound 14 (20 μM) is summarized in Table 3 below. Data corresponding to cathepsin L activity (after activation) in cell conditioned media in the presence of Compound 27 (20 μM) is summarized in Table 4 below.

Test [2] relates to cathepsin L. The experiment in a line: Inhibition of activated cathepsin L in DU-145 cell lysates. In kind it is cell-based. Conditions: DU-145 cell lysates preincubated for 24 h with compound, following removal of media, replicate samples a-c; for activity (cathepsin L activity after activation): control 6.93E−03; for cps (cathepsin L activity after activation): control 26950. As for the experimental part: as §1, with “cell lysates preincubated for 24 h with” for “cell conditioned media in the presence of”, “14 and following the removal of media” for “14 (20 μM)”, “Table 5” for “Table 3”, “27 and following the removal of media” for “27 (20 μM)”, “Table 6” for “Table 4”

Where [3] appears, read: Table A, 1 nM human liver cathepsin L, pH 5.5, 25° C., 50 μM Z-FR-AMC, read-out: Cat L IC50.

T1 sequence (P07711 114-333): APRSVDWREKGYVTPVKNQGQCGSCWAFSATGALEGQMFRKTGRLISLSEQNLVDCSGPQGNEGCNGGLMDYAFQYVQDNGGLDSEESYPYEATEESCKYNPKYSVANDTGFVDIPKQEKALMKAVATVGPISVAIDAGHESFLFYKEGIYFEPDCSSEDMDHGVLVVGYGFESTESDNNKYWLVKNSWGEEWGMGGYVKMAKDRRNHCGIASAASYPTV
Chain of Cruzain (P25779 123-467): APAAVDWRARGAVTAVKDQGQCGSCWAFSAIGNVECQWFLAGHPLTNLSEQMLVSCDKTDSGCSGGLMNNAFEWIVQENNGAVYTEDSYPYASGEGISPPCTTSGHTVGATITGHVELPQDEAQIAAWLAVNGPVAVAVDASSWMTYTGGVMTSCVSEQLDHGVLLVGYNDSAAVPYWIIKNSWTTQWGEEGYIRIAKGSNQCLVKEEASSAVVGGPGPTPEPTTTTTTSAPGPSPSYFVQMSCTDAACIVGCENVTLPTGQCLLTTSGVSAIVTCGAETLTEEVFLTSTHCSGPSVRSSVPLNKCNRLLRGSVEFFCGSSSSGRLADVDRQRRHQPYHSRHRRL

In the case of `CC/C(=N\NC(N)=S)c1cccc(Br)c1` [Compound 5, 3-Bromopropiophenone thiosemicarbazone], the IC50 on Human liver cathepsin L (Table B, unit inferred, read-out: Cat L) was > 10 µM; on Cat B (Table B, unit inferred, read-out: Cat B) it was > 50 µM.

Consider `CC/C(=N\NC(N)=S)c1cccc([N+](=O)[O-])c1` [Compound 6, 3-Nitropropiophenone thiosemicarbazone], for which the IC50 on Cruzain turned out to be 0.86 µM; on Human liver cathepsin L (setting [3]), 5.79 µM.

For `CC/C(=N\NC(N)=S)c1cccc(O)c1` [Compound 7, 1-(3-Hydroxyphenyl)-1-propanone thiosemicarbazone], at Human liver cathepsin L (setting [3]), the IC50 was found to be 2.57 µM.

`CC/C(=N\NC(N)=S)c1cccc(N)c1` [Compound 8, 3-Aminopropiophenone thiosemicarbazone]: the IC50 against Cruzain was 3.64 µM; at Human liver cathepsin L (setting [3]), 1.64 µM.

Regarding `NC(=S)N/N=C(\c1ccccc1)c1cccc(Br)c1` [Compound 13, Phenyl(3-bromophenyl) ketone thiosemicarbazone], the IC50 is 0.08 µM on Cruzain and 16.2 µM on Human liver cathepsin L (setting [3]).

`NC(=S)N/N=C1\CCCc2c(Br)cccc21` [Compound 20, 5-Bromo-1-tetralone thiosemicarbazone]: the IC50 was determined as 1.2 µM on Cruzain and 0.367 µM at Human liver cathepsin L (setting [3]).

Turning to `NC(=S)N/N=C1\CCCc2ccc(Br)cc21` [Compound 21, 7-Bromo-1-tetralone thiosemicarbazone], the figures for the IC50 on Cruzain and on Human liver cathepsin L (setting [3]) were 0.017 µM and 0.619 µM, respectively.

Regarding `NC(=S)N/N=C1\CCS(=O)(=O)c2ccc(Br)cc21` [Compound 23, 6-Bromo-1,1-dioxo-1-thiochroman-4-one thiosemicarbazone], the values for the IC50 against Cruzain and on Human liver cathepsin L (setting [3]) were 0.21 µM and 0.001 µM, respectively.

Take `NC(=S)N/N=C1\CCS(=O)(=O)c2c(Br)cc(Br)cc21` [Compound 24, 6,8-Dibromo-1,1-dioxo-1-thiochroman-4-one thiosemicarbazone]: the IC50 against Cruzain stood at 0.82 µM; at Human liver cathepsin L (setting [3]), 0.716 µM.

Turning to `NC(=S)N/N=C1\CCOc2ccccc21` [Compound 26], the IC50 at Human liver cathepsin L (setting [3]) came to 6.38 µM.

On to `NC(=S)N/N=C1\CCS(=O)(=O)c2ccccc21` [Compound 27], for which the “activity (cathepsin L activity after activation)” value in the test with cathepsin L [1] (control 1.50E−03, listed as 27a) was determined as 0.000101 µM/s; in the test with cathepsin L [1] (control 1.50E−03, listed as 27b), 9.46e-05 µM/s; in the test on cathepsin L [1] (control 1.50E−03, listed as 27c), 9.81e-05 µM/s; in the test on cathepsin L [2] (listed as 27a) it was 0.00308 µM/s; in the test with cathepsin L [2] (listed as 27b) it was 0.00255 µM/s; with cathepsin L [2] (listed as 27c) it was 0.00275 µM/s. Besides, the “cps (cathepsin L activity after activation)” value is recorded as 393.7 cps in the test with cathepsin L [1] (control 5848, listed as 27a); 367.5 cps with cathepsin L [1] (control 5848, listed as 27b); 381.1 cps in the test with cathepsin L [1] (control 5848, listed as 27c); 11990 cps in the test with cathepsin L [2] (listed as 27a); 9918 cps in the test on cathepsin L [2] (listed as 27b); 10690 cps in the test on cathepsin L [2] (listed as 27c). Further, the IC50 at Human liver cathepsin L (setting [3]) stood at 5.05 µM.

As to `CC(=O)C1=CCCc2ccccc21` [Compound 37, [1-(3,4-Dihydronaphthalenyl)]methyl ketone], the IC50 on Human liver cathepsin L (setting [3]) is > 10 µM.

Consider `C=CC(=O)C1=CCCc2ccc(Br)cc21` [Compound 38], for which, on Human liver cathepsin L (setting [3]), the IC50 worked out at 0.372 µM.

On to `NC(=S)N/N=C1\CCC(c2ccc(Br)cc2)C1` (stereo not shown) [Compound 46], for which the IC50 against Cruzain is > 5 µM; at Human liver cathepsin L (setting [3]) it was > 10 µM.

For the molecule `NC(=S)N/N=C1\CCCC(c2ccc(Br)cc2)C1` (stereo not shown) [Compound 47], the IC50 against Cruzain was > 7 µM; on Human liver cathepsin L (setting [3]), 2.91 µM.

`NC(=S)N/N=C1\CCc2ccccc2O1` [Compound 48]: the figures for the IC50 against Cruzain and at Human liver cathepsin L (setting [3]) were > 17 µM and 2.45 µM, respectively.

Consider `NC(=S)N/N=C1\CCc2ccccc21` [Compound 49], for which the IC50 on Human liver cathepsin L (setting [3]) was > 10 µM.

Regarding `NC(=S)N/N=C1\CCc2ccc(Br)cc2C1` [Compound 69, 7-Bromo-2-tetralone thiosemicarbazone], the IC50 at Cruzain is > 17 µM; on Human liver cathepsin L (setting [3]), 4.26 µM; at Cat B (Table A, read-out: Cat B IC50) it was < 50 µM.

For `NC(=S)N/N=C1\CCc2c(Br)cc(Br)cc2C1` [Compound 70, 5,7-Dibromo-2-tetralone thiosemicarbazone], the IC50 was 4.48 µM against Cruzain; 10.9 µM on Human liver cathepsin L (setting [3]); > 50 µM at Cat B (Table A, read-out: Cat B IC50).
